These are literature values, as cited in patent publication US12178814B2, “Pharmaceutical composition” (ASTELLAS PHARMA INC., priority 2019, dated 2024).

In this data set the test system is EML4 (Echinoderm microtubule associated protein like-4)-ALK (Anaplastic lymphoma kinase) fusion protein. The following applies: reported in WO2010/128659, WO2017/006855.

On to `CCc1nc(C(N)=O)c(Nc2ccc(N3CCC(N4CCN(C)CC4)CC3)c(OC)c2)nc1NC1CCOCC1` [gilteritinib, 6-Ethyl-3-{3-methoxy-4-[4-(4-methylpiperazin-1-yl)piperidin-1-yl]anilino}-5-[(oxan-4-yl)amino]pyrazine-2-carboxamide], for which the “inhibitory activity of a kinase activity of EML4-ALK fusion protein” value is “inhibitory activity”.
